The record followed here is patent publication US8802240B2, “Uses of formulations of thyroid hormone analogs and nanoparticulate forms thereof to increase chemosensitivity and radiosensitivity in tumor or cancer cells” (Nanopharmaceuticals LLC, priority 2011, dated 2014).

Data set [1] relates to doxorubicin-resistant MCF7/R cells. Kind of data set: Doxorubicin-resistant tumors in nude mice. It counts as in vivo. As for the experimental part:
Mice were injected with doxorubicin-resistant MCF7/R cells (10^6) and after 10 days, they were assigned into groups of seven mice each and challenged with doxorubicin (2 mg/kg) or Tetrac (30 mg/kg) either alone or in combination. Tumor volume was measured every 3 days for up to three weeks.

The test system of the next data set is GL261 cells. Kind of data set: GL261 apoptosis and necrosis with or without 5 Gy x-rays. It counts as cell-based, murine. The note with it: Tetrac 2 μM, T-NP 0.2 μM. As for the experimental part:
Apoptotic cells were identified using TUNEL staining (Terminal deoxynucleotidyl transferase dUTP nick end labeling (TUNEL)) (staining kit obtained from Oncor, Gaithersberg, Md.; ApoTag) (See Gavrieli et al., J. Cell. Biol. 1992. 119:493-501). The staining procedures were carried out as instructed by the manufacturer. Gill's hematoxylin was used as a counterstain to discriminate negative cells (purple) from positive cells (brown). Negative controls were performed by omitting the terminal deoxynucleotidyl transferase enzyme. Positive controls were performed by incubating cells with Dnase I (3000 U/ml) in 50 mM Tris-HCl, pH 7.5, in 1 mg/ml bovine serum albumin (BSA) for 10 min at ambient temperature.
To perform FCM, a total of 10^6 adherent cells were trypsinized and washed once in ambient temperature PBS. They were then fixed in 70% ethanol, and stored overnight, at 4° C. […] Cells were left overnight at 4° C. in the dark and were then analyzed on a Coulter fluorescence-activated cell sorter (Coulter Electronics, Hialeah, Fla.). Cells were excited with a single 488 nm argon laser and the resulting fluorescence was detected using a 585 nm filter. Linear red-orange fluorescence (FL3) data were collected in list format and 10,000 events were collected. The distribution of cells within the cell cycle (sub-G1, G1, S, and G2+M phases) was determined using a Coulter software program.

In data set [2] the test system is DNA double-strand breaks in U87MG cells. Description: U87MG neutral comet assay of DNA double-strand breaks. It counts as cell-based, human. As for the experimental part: For the comet assay studies of induction and repair of DSBs in U87MG cells, cells were treated as described above. However, for the single dose induction of DSBs doses ranged from 0-30 Gy, and for the study of the repair of DSBs in irradiated cells, a large single dose of 60 Gy requiring approximately 1 h of irradiation time was given. Appropriate temperature controls (on ice) were run to insure that no decrement in survival was produced by the 1 h exposure to 0° C.
U87MG cells on plastic slides were exposed to 2 nM Tetrac for 1 h at 37° C. These slides were then placed on crushed ice and irradiated with doses from 0 to 75 Gy. Slides were immersed in lysing solution at 50° C. for 2 hours. Slides were washed, and placed into a gel electrophoresis unit. Electrophoresis was carried out at 0.66 V/cm for 25 min. Cells were stained with ethidium bromide and image analysis was done using an epifluoresence microscope at a total magnification of 400×. We also used an excitation filter of 515-535 nm and a barrier filter at 590 nm. The mean tail moment (TM) which is expressed in arbitrary units was then calculated. TM was calculated using a CCD camera and software. Approximately 350 comets were analyzed per condition.

In the case of `O=C(O)Cc1cc(I)c(Oc2cc(I)c(O)c(I)c2)c(I)c1` [Tetrac, tetraiodothyroacetic acid], the “toxic effect (in words)” value in data set [1] (Tetrac 30 mg/kg) is “without any noticeable toxic effect”. In addition, the “doxorubicin-sensitivity in vivo (in words)” value in data set [1] (Tetrac 30 mg/kg with doxorubicin 2 mg/kg) is reported as “not restored”. In addition, the “growth of doxorubicin-resistant tumors (in words)” value in data set [1] (Tetrac 30 mg/kg, up to three weeks) was “effective in suppressing the growth of drug resistant tumors”. Moreover, in the data set on GL261 cells, the “effect on necrosis, necrotic percentage at 120 hours (in words)” value is recorded as “essentially additive” and the “effect plus 5 Gy of x-rays on apoptosis (in words)” value is “supra-additive”. Also, in data set [2], the “effect on the slope of the mean tail moment in graded single dose studies (in words)” value is reported as “did not affect the slope of the mean tail moment” and the “sensitization factor from mean tail moment at 0 Gy” value is 2.2. Also, the “inhibition of repair of DNA double strand breaks / decrease of repair rate” value in data set [2] ([(1.00−slope Tetrac/slope control)×100]) worked out at 72.5%. Moreover, in data set [2] (after 30 Gy of x-rays, control −4.36), the “slope of time-dependent DSB repair” value is on record as −1.20.
